# Values quoted from earlier work in patent US20130030007A1, “Obesity Small Molecules” (AKRON MOLECULES GMBH, priority 2010, published 2013).
# Structures can show the parent of a compound that is named as a salt. Starred links: 1 amine or outer side, 2 acyl side, 3 side chain; linkers in the order of their positions; H or OH if unused. Positions of bridges follow the written chain, without caps; N, C: chain ends. Non-standard residues stand in square brackets, D forms with d. Residues, ends and D or L forms follow the SMILES beside them. *: point of attachment. Adda = CO[C@@H](Cc1ccccc1)[C@@H](C)/C=C(C)/C=C/[C@H](N[*:1])[C@H](C)C(=O)[*:2]; dAsp(3S-Me) = C[C@H](C(=O)[*:3])[C@@H](N[*:1])C(=O)[*:2]; d(γGlu) = O=C(O)[C@@H](CCC(=O)[*:2])N[*:1]; Cbz = O=C(OCc1ccccc1)*; NMeDha = C=C(NC)C(=O)O
# Test system: human ortholog of Drosophila obesity gene
# Design: key: O: Obesity - obesity pathway interaction; B: validated binding partner
# Conditions: cited from earlier work
row,SMILES,Type: Type of interaction
1,CCCCCCCNS(=O)(=O)c1cccc2c(Cl)cccc12,B
2,COc1ccc(C2=N[C@@H](c3ccc(Cl)cc3)[C@@H](c3ccc(Cl)cc3)N2C(=O)N2CCNC(=O)C2)c(OC(C)C)c1 (racemic) [nutlin 3],O
3,Nc1nc2[nH]cc(CCc3ccc(C(=O)N[C@@H](CCC(=O)O)C(=O)O)cc3)c2c(=O)[nH]1 [LY231514],O
4,C=C1C(=O)N[C@H](C)C(=O)N[C@@H](CC(C)C)C(=O)N[C@@H](C(=O)O)[C@H](C)C(=O)N[C@@H](CCCNC(=N)N)C(=O)N[C@@H](/C=C/C(C)=C/[C@H](C)[C@H](Cc2ccccc2)OC)[C@H](C)C(=O)N[C@@H](C(=O)O)CCC(=O)N1C [MCYST-LR] (R[Adda][d(γGlu)][NMeDha][dA]L[dAsp(3S-Me)]-OH; lactam N-7),O
5,CS(=O)(=O)c1cc(F)cc2c3c(n(Cc4ccc(Cl)cc4)c12)[C@@H](CC(=O)O)CC3 [MK-0524],B
6,CSC[C@H]1O[C@@H](n2cnc3c(N)ncnc32)[C@H](O)[C@@H]1O [MeSAdo],B
7,CCCC(C)C1(CC)C(=O)NC(=O)NC1=O (stereo not drawn) [Mebumal],O
8,CC(=O)O[C@]1(C(C)=O)CC[C@H]2[C@@H]3C[C@H](C)C4=CC(=O)CC[C@]4(C)[C@H]3CC[C@@]21C [Medroxyprogesterone 17-Acetate],B
9,CCCC(C)(COC(N)=O)COC(N)=O [Meprobamate],O
10,CNC[C@H](O)c1cccc(O)c1 [Mesaton],B
11,CN[C@@H](C)Cc1ccccc1 [Meth],O
12,COc1ccc2c(c1)C13CCCCC1C(C2)N(C)CC3 (stereo not drawn) [Methorphan],O
13,CSc1ncnc2c1ncn2[C@@H]1O[C@H](CO)[C@@H](O)[C@H]1O [Methylthioinosine],B
14,C[C@]1(O)CC[C@H]2[C@@H]3CCC4=CC(=O)CCC4=C3C=C[C@@]21C [Metribolone],B
15,c1cncnc1 [Miazine],B
16,CCCOC(C(=O)OC1CCN(C)CC1)(c1ccccc1)c1ccccc1 [Mictonorm],B
17,Cc1ncc2n1-c1ccc(Cl)cc1C(c1ccccc1F)=NC2 [Midazolam],O

row,SMILES,Type: Type of interaction
1,C[C@@H]1C[C@H]2O[C@@H]2/C=C\C=C\C(=O)Cc2c(Cl)c(O)cc(O)c2C(=O)O1 [Monorden],B
2,C/C=C1/C(=O)N[C@@H](C(=O)O)[C@H](C)C(=O)N[C@@H](C(C)C)C(=O)N[C@@H](/C=C/C(C)=C/[C@H](C)[C@H](Cc2ccccc2)OC)[C@H](C)C(=O)N[C@@H](C(=O)O)CCC(=O)N1C [Motuporin],O
3,Cn1cnc([N+](=O)[O-])c1Sc1ncnc2nc[nH]c12 [Muran],O
4,C[C@@H]1O[C@H](C[N+](C)(C)C)C[C@H]1O [Muscarine],B
5,Nc1ccc(CCN2CN(c3ccccc3)C3(CCN(CCCC(=O)c4ccc(F)cc4)CC3)C2=O)cc1 [N-(4-aminophenethyl)spiroperidol],B
6,CC(NC(N)=O)c1cc2ccccc2s1 (stereo not drawn) [N-dehydroxyzileuton],O
7,O=C1CC(=O)N(c2ccccc2)c2cc(Cl)ccc2N1 [N-desmethylclobazam],B
8,COc1ccccc1N1CCN(CC(C(=O)NC(C)(C)C)c2ccccc2)CC1 (stereo not drawn) [N-tert-butyl-3-[4-(2-methoxyphenyl)piperazin-1-yl]-2-phenylpropanamide],B
9,CCCC(=O)[O-].[Na+] [NABU],O
10,CN[C@H](CC(=O)O)C(=O)O [NMDA],O
11,CCN(CC)CCCC(C)Nc1nc(C)cc(Nc2ccc3nc(C)cc(N)c3c2)n1 (stereo not drawn) [NSC 23766],B
12,Nc1nc(OCC2CCCCC2)c2[nH]cnc2n1 [NU2058],B
13,NS(=O)(=O)c1ccc(Nc2nc(OCC3CCCCC3)c3[nH]cnc3n2)cc1 [NU6102],B
14,Nc1ncnc2c1c(-c1cccc(OCc3ccccc3)c1)cn2C1CC(CN2CCC2)C1 (stereo not drawn) [NVP-AEW541],O
15,NC[C@@H]1O[C@H](O[C@H]2[C@@H](O)[C@H](O[C@@H]3[C@@H](O)[C@H](N)C[C@H](N)[C@H]3O[C@H]3O[C@H](CN)[C@@H](O)[C@H](O)[C@H]3N)O[C@@H]2CO)[C@H](N)[C@@H](O)[C@@H]1O [Neomycin],B
16,Oc1ccc2c3c1O[C@H]1c4[nH]c5c(c4C[C@@]4(O)[C@@H](C2)N(CC2CC2)CC[C@]314)C[C@@]1(O)[C@H]2Cc3ccc(O)c4c3[C@@]1(CCN2CC1CC1)[C@H]5O4 [Norbinaltorphimine],O

# Same assay, conditions: interaction of the small molecule with the human ortholog(s) / Drosophila gene(s) listed in the same table line; cited from earlier work
row,SMILES,Type: Type of interaction
1,O=c1c(O)c(-c2ccc(O)cc2O)oc2cc(O)cc(O)c12 [MORIN],O
2,COc1ccc(Cl)cc1C(=O)NCCc1ccc(S(=O)(=O)NC(=O)NC2CCCCC2)cc1 [Malix],B
3,CCC(=O)O[C@@H]1CC(=O)O[C@H](C)C/C=C/C=C/[C@H](O)[C@H](C)C[C@H](CC=O)[C@H](O[C@@H]2O[C@H](C)[C@@H](O[C@H]3C[C@@](C)(O)[C@@H](OC(=O)CC)[C@H](C)O3)[C@H](N(C)C)[C@H]2O)[C@H]1OC [Medemycin],O
4,COc1ccc2[nH]cc(CCNC(C)=O)c2c1 [Melatol],B
5,CC12CC3CC(C)(C1)CC(N)(C3)C2 [Memantine],B
6,CC(C)=CCC/C(C)=C/CC/C(C)=C/CC/C(C)=C/CC1=C(C)C(=O)c2ccccc2C1=O [Menatetrenone],O
7,CCC1(c2ccccc2)NC(=O)N(C)C1=O (stereo not drawn) [Mephenytoin],B
8,COc1c2occc2cc2ccc(=O)oc12 [Methoxsalen],B
9,CC(C)(C(=O)c1cccnc1)c1cccnc1 [Metopiron],O
10,CC#C[C@]1(O)CC[C@H]2[C@@H]3CCC4=CC(=O)CCC4=C3[C@@H](c3ccc(N(C)C)cc3)C[C@@]21C [Mifepristone],B
11,NC(Cn1ccc(=O)c(O)c1)C(=O)O (stereo not drawn) [Mimosine],O
12,O=C1c2c(O)ccc(O)c2C(=O)c2c(NCCNCCO)ccc(NCCNCCO)c21 [Mitoxantrone],O
13,CCOC(=O)[N-]c1cn(N2CCOCC2)n[o+]1 [Molsidomine],B
14,CC[C@@]1([C@@H]2O[C@@H]([C@H]3O[C@@](O)(CO)[C@H](C)C[C@@H]3C)C[C@@H]2C)CC[C@H]([C@]2(C)CC[C@]3(C[C@H](O)[C@@H](C)[C@@H]([C@@H](C)[C@@H](OC)[C@H](C)C(=O)O)O3)O2)O1 [Monensin],O
15,O=C(Nc1cc2ccccc2cn1)c1ccccc1NCc1ccncc1 [N-3-isoquinolinyl-2-((4-pyridinylmethyl)amino)benzamide],O
16,Nc1ccc(N2C(=O)C=CC2=O)cc1 [N-(4-aminophenyl)maleimide],O
17,N#Cc1cccc2sc(C(=O)NC(=N)N)cc12 [N-(4-cyano-benzo (b)thiophene-2-carbonyl)guanidine],O
18,C[C@H](NC(CCCCCCCN)C(=O)O)C(=O)N1CCC[C@H]1C(=O)O (stereo partly drawn) [N-(8-amino-1-carboxyoctyl)-alanyl-proline],O
19,O=C[C@@H]1CCCN1C(=O)[C@@H]1CCCN1C(=O)OCc1ccccc1 [N-benzyloxycarbonylprolyl-prolinal] (Cbz-Pro-Pro-aldehyde),O
20,CCN1C(=O)C=CC1=O [N-ethylmaleimide],O

row,SMILES,Type: Type of interaction
1,C#CCOc1ccccc1CCCCCC(=O)NS(C)(=O)=O [N-methylsulfonyl-6-(2-propargyloxyphenyl)hexanamide],O
2,COc1ccccc1N1CCN(CCCCN2C(=O)c3ccccc3C2=O)CC1 [NAN-190 hydrobromide],B
3,O=C1C[C@@H](c2ccc(O)cc2)Oc2cc(O)cc(O)c21 [NARIGENIN],O
4,O=C(O)C[C@H](O)C[C@H](O)/C=C/c1c(C2CC2)nc2ccccc2c1-c1ccc(F)cc1 [NK 104],B
5,CNC(=O)[C@@H](Cc1ccccc1)N(C)C(=O)[C@@H](Cc1ccc2ccccc2c1)N(C)C(=O)/C=C/CC(C)(C)N [NN 703],B
6,O=c1c(-c2ccc(O)cc2)coc2cc(O)cc(O)c12 [NPI 031L],B
7,c1ccc2ccccc2c1 [Naftalen],B
8,C=CCN1CC[C@]23c4c5ccc(O)c4O[C@H]2C(=O)CC[C@@]3(O)[C@H]1C5 [Naloxone],O
9,O=C1CC[C@@]2(O)[C@H]3Cc4ccc(O)c5c4[C@@]2(CCN3CC2CC2)[C@H]1O5 [Naltrexone],B
10,c1ccc2c(CC3=NCCN3)cccc2c1 [Naphazoline],O
11,CCc1nn(CCCN2CCN(c3cccc(Cl)c3)CC2)c(=O)n1CCOc1ccccc1 [Nefazodone],O
12,Cc1c(O)cccc1C(=O)N[C@@H](CSc1ccccc1)[C@H](O)CN1C[C@H]2CCCC[C@H]2C[C@H]1C(=O)NC(C)(C)C [Nelfinavir],O
13,Cc1ccnc2c1NC(=O)c1cccnc1N2C1CC1 [Nevirapine],O
14,NC(=O)c1cccnc1 [Niacinamide],B
15,O=C(OCC(COC(=O)c1cccnc1)(COC(=O)c1cccnc1)COC(=O)c1cccnc1)c1cccnc1 [Niceritrol],O
16,CO[C@@H]1C[C@@H](C[C@H]2CC[C@H](C)[C@H]([C@@H](C)C(=O)O)O2)O[C@]2(O[C@](C)([C@H]3CC[C@@](C)([C@@H]4O[C@@H]([C@H]5O[C@@](O)(CO)[C@H](C)C[C@@H]5C)C[C@@H]4C)O3)C[C@H]2C)[C@@H]1C [Nigericin],O
17,COc1ccc(-c2cc(=O)c3c(OC)c(OC)c(OC)c(OC)c3o2)cc1OC [Nobiletin],O
18,CC(Cc1ccc(O)c(O)c1)C(C)Cc1ccc(O)c(O)c1 (stereo not drawn) [Nordihydroguaiaretic Acid],B
19,C#C[C@]1(O)CC[C@H]2[C@@H]3CCC4=CC(=O)CC[C@@H]4[C@H]3CC[C@@]21C [Norethindrone],O
